What was measured:
[1] = target: T1, guinea pig lung receptors (LTD4 receptor) (Cavia porcellus, UniProt Q2NNR5); test: Leukotriene (LTD4) Receptor Binding Assay; details: LTD4 Antagonism; guinea pig lung membrane
T1 construct: guinea pig lung receptors, isolated from guinea pig lung membrane; from tissue; host or cells: guinea pig lung membrane
T1 sequence (Q2NNR5 1-340): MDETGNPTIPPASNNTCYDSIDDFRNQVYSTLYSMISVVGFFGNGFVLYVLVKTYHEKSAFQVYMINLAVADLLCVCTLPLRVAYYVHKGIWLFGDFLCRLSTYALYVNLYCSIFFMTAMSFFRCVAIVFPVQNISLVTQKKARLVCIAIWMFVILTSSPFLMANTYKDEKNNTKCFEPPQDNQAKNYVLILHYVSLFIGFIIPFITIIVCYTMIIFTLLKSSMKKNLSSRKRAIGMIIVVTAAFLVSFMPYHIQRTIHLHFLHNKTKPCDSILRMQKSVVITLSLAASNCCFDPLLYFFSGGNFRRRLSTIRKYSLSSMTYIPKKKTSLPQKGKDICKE
Method: Leukotriene Receptor Binding Assay (12c01)
The in vitro LTD4 receptor binding assay is carried out as follows:
Specific binding of titrated LTD4 to a fixed number of guinea pig lung receptors, isolated from guinea pig lung membrane, is measured in the presence and absence of test compound. The initial screening dose (1×10^-5 M is considered active if the specific binding of LTD4 is reduced by 45% or more. Active compounds are tested in a dose-response manner to determine IC50 values.

[2] = target: T2, guinea pig ileum (LTD4-induced contraction) (Cavia porcellus, UniProt Q2NNR5); test: LTD4 Antagonism in Guinea Pig Ileum; format: cell-based; details: pA2, Schild analysis
T2 construct: Fresh segments of guinea pig ileum; from tissue; host or cells: guinea pig ileum segments
T2 sequence (Q2NNR5 1-340): T1 sequence (Q2NNR5 1-340)
Method: LTD4 Antagonism in Guinea Pig Ileum
Fresh segments of guinea pig ileum were suspended in 2 ml. tissue baths containing oxygenated modified Tyrodes solution. After an equilibration period, an agonist dose-response curve was generated by exposing each tissue to 4 different LTD4 doses and measuring the ensuing contractile heights. The ileum segments were washed and rested between exposures to agonist. Following this, the tissues were incubated with a single concentration of test compound and the agonist dose-response procedure was repeated. The dose ratio is a measure of the antagonist's ability to shift the agonist dose-response curve to the right. It is derived as the concentration of agonist necessary to reach a given response level in the presence (A') versus the absence (A) of antagonist. For example, if the test concentration of compound had no effect on the agonist-induced response (A'=A) the dose-ratio would approximate 1. […] One dose-ratio value is determined for each strip of ileum used to test antagonist. […] Schild analysis examines the linearity of the function described by the dose-ratios written as log [(A'/A)-1] versus antagonist concentration. If the linearity is […] and the slope approximates 1, inhibition is considered to be competitive. The pA2 is the negative log of the antagonist concentration required to produce a dose-ratio of 2. This value is considered to be a measure of the affinity of the competitive antagonist.

[3] = test system: LTD4 action on respiratory smooth muscle; test: In Vivo Bronchoconstriction Assay (LTD4-induced); parameters: species or system guinea pig; details: LTD4 Antagonism, guinea pigs, 2000 units LTD4 IV
Method: The compounds are tested in vivo as follows. Adult male fasted Hartly guinea pigs weighing 300-350 g are pretreated with pyrilamine and indomethacin to block the bronchoconstricture effects of endogenous histamine and the synthesis of thromboxane A2 respectively. Compounds of the invention are administered IV or IG at approximate times prior to the IV administration of 2000 units of LTD4. Intratracheal pressure is monitored prior to and subsequent to LTD4 in animals anesthetized with pentobarbital and attached to a rodent respirator. Compounds which antagonize the direct component of LTD4 action on respiratory smooth muscle inhibit intratracheal insufflation pressure increases (P< or =0.05) caused by LTD4. FPL 55712 is used as a control.

LTB4 receptor = target: T3, LTB4 receptor (Homo sapiens, UniProt Q15722); test: LTB4 Receptor Binding Assay (human neutrophils); details: LTB4 Antagonism, 0.6 nano M (3H) LTB4, 0° C., 45 minutes
T3 construct: Neutrophils were purified from venous blood of normal human donors; endogenous in cells; host or cells: human blood neutrophils
Method: Preparation of Human Neutrophils
Neutrophils were purified from venous blood of normal human donors using standard techniques of dextran sedimentation, centrifugation on Histopaque sterile solution (Sigma) and hypotonic lysis of erythrocytes (Boyum, A., Isolation of Leukocytes from Human Blood: Further Observations. Scand. J. Lab. Clin. Invest. 21 (Suppl. 97): 31, 1968). The purity of isolated neutrophils was ≥95%.
LTB4 Receptor Binding Assay
Neutrophils (4-6×10^6) in 1 ml Hanks' balanced salt solution containing 10 mM HEPES buffer (HBSS), pH 7.4 and […] nordihydroguaiaretic acid were incubated with 0.6 nano M (^3 H) LTB4 in the presence or absence of test compounds. The incubation was carried out at 0° C. for 45 minutes and terminated by adding 5 ml of ice-cold HBSS followed by rapid filtration of incubation mixture under vacuum through GF/C glass fiber filters. The filters were further washed with 10 ml HBSS and radioactivity was determined. Specific binding was defined as the difference between total binding and nonspecific binding which was not displaced by 10^-7 M unlabeled LTB4. All data refer to specific binding.

T3 sequence (Q15722 whole entry): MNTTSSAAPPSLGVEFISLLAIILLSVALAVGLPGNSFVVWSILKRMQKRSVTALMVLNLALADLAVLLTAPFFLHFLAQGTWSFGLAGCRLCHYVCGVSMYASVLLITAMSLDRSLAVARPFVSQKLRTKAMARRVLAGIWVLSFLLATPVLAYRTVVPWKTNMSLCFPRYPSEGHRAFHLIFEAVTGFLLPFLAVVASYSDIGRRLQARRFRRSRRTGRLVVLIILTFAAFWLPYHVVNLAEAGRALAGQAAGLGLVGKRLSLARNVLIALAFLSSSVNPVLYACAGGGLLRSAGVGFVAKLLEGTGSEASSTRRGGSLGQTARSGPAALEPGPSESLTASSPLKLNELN

Row | Compound | IC50 [1] | Kb [2] | IC50 (LTB4 receptor) | In Vivo Bronchoconstriction Assay (% Inhibition at 5 mpk. IV) [3]
1 | CCCc1c(OCCCSCC2COC(CCC(=O)O)(c3ccccc3)S2)ccc(C(C)=O)c1O (stereo not drawn) [Example 70, 4-[[[3-(4-Acetyl-3-hydroxy-2-propylphenoxyl]propyl]thio]methyl]-2-phenyl-1,3-oxathiolane-2-propanoic acid] | 6240 nM | 26.9 nM |  | 59.2%
2 | CCCc1c(OCCCSCC2CSC(C)(CCCC(=O)O)S2)ccc(C(C)=O)c1OC (stereo not drawn) [Example 81, 4-[[[3-(4-Acetyl-3-methoxy-2-propylphenoxy)propyl]thio]methyl]-2-methyl-1,3-dithiolane-2-butanoic acid] |  |  | 60 nM | 
3 | CCCc1c(OCCCSCC2COC(C)(CCCC(=O)O)S2)ccc(C(C)=O)c1O (stereo not drawn) [Example 84] | 7100 nM |  |  | 85.1%
4 | CCCc1c(OCCCSCC2CSC(C)(CCC(=O)O)S2)ccc(C(C)=O)c1O (stereo not drawn) [Example 50, 4-[[[3-(4-Acetyl-3-hydroxy-2-propylphenoxy)propyl]thio]methyl]-2-methyl-1,3-dithiolane-2-propanoic acid] | 9470 nM | 14.5 nM |  | 91.2%

Second part, led by results:

Row | IC50 [1] | Kb [2] | IC50 (LTB4 receptor) | Compound | In Vivo Bronchoconstriction Assay (% Inhibition at 5 mpk. IV) [3]
5 | 9370 nM | 14.5 nM |  | CCCc1c(OCCCSCC2COC(C)(CCC(=O)O)S2)ccc(C(C)=O)c1O (stereo not drawn) [Example 38, 4-[[[3-(4-Acetyl-3-hydroxy-2-propylphenoxy)propyl]thio]methyl]-2-methyl-1,3-oxathiolane-2-propanoic acid] | 87.2%
6 | 3560 nM | 21.4 nM |  | CCCc1c(OCCCSCC2COC(CCC(=O)O)(CCC(=O)O)S2)ccc(C(C)=O)c1O (stereo not drawn) [Example 3, 4-[[[3-(4-Acetyl-3-hydroxy-2-propylphenoxy)propyl]thio]methyl]-1,3-oxathiolane-2,2-dipropanoic acid] | 96.9%
7 | 5020 nM | 9.55 nM |  | CCCc1c(OCCCSCC2CSC(C)(CCCC(=O)O)S2)ccc(C(C)=O)c1O (stereo not drawn) [Example 61, 4-[[[3-(4-Acetyl-3-hydroxy-2-propylphenoxy)propyl]thio]methyl]-2-methyl-1,3-dithiolane-2-butanoic acid] | 95.6%
8 | 591 nM | 8.91 nM |  | CCCc1c(OCCCSCC2CSC(CCC(=O)O)(CCC(=O)O)S2)ccc(C(C)=O)c1O (stereo not drawn) [Example 35, 4-[[[3-(4-Acetyl-3-hydroxy-2-propylphenoxy)propyl]thio]methyl]-1,3-dithiolane-2,2-dipropanoic acid] | 93%

Reference: US4808729A, “Leukotriene LTD4 and LTB4 antagonists” (G. D. Searle & Co., priority 1987, dated 1989)
